Measured values taken from PubChem BioAssay (NCI).
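All cell lines were grown in 96-well plates and treated with compound for 48 hours. TGI: total growth inhibition.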

Assays:
Test in all cases: DTP human tumour cell line panel, 48 h
[1] = system: CCRF-CEM leukemia
[2] = system: IGROV1 ovarian
[3] = system: MOLT-4 leukemia
[4] = system: NCI-H226 lung
[5] = system: NCI-H522 lung
[6] = system: OVCAR-3 ovarian
[7] = system: OVCAR-5 ovarian
[8] = system: RPMI-8226 leukemia
[9] = system: SF-268 CNS
[10] = system: SF-295 CNS
[11] = system: SK-OV-3 ovarian
[12] = system: SNB-75 CNS
[13] = system: TK-10 renal
[14] = system: SK-MEL-5 melanoma
[15] = system: MCF7 breast
[16] = system: DU-145 prostate
[17] = system: HS 578T breast

SMILES	TGI [1]	TGI [2]	TGI [3]	TGI [4]	TGI [5]	TGI [6]	TGI [7]	TGI [8]	TGI [9]	TGI [10]	TGI [11]	TGI [12]	TGI [13]	TGI [14]	TGI [15]	TGI [16]	TGI [17]
COc1cc(C2c3cc4c(cc3OC3(O)COC(=O)C23)OCO4)cc(OC)c1OC (stereo not drawn)	> 100 µM	> 100 µM	> 100 µM	> 100 µM	54.1 µM	> 100 µM	> 100 µM	> 100 µM	> 100 µM	74.5 µM	79 µM	54.5 µM	> 100 µM				
Cc1c2ccccc2c(CO)c2cc(F)c3ccccc3c12	68 µM	63.7 µM	39.6 µM	> 100 µM	26.3 µM	61.3 µM	80.6 µM		71.2 µM	57.8 µM	73.6 µM	> 100 µM	71.8 µM	> 100 µM			
CCCCC(NC(=O)CC)C(=O)O (stereo not drawn)	> 100 µM	> 100 µM	> 100 µM	> 100 µM	> 100 µM	> 100 µM	> 100 µM	> 100 µM	> 100 µM	> 100 µM	> 100 µM	> 100 µM		> 100 µM	> 100 µM		
CN1C[C@H]2[C@@H](C1=O)[C@H](c1ccc([N+](=O)[O-])cc1)ON2C	> 100 µM	> 100 µM	> 100 µM	> 100 µM	> 100 µM	> 100 µM	> 100 µM	> 100 µM		> 100 µM	> 100 µM		> 100 µM	> 100 µM	> 100 µM	> 100 µM	> 100 µM
CCCCCCc1cc2cc(C(=O)Nc3ccccc3F)c(=N)oc2cc1O	21.7 µM	13.7 µM	90.5 µM		16.8 µM	25.9 µM	50.9 µM	> 100 µM	59.9 µM	33 µM	29.3 µM			12.8 µM	39.1 µM	25.2 µM	63.8 µM
COc1cc(COC(=O)N2CCCCC2C(=O)O)c([N+](=O)[O-])cc1OC (stereo not drawn)	> 100 µM	> 100 µM	> 100 µM	> 100 µM		> 100 µM	> 100 µM	> 100 µM	> 100 µM	> 100 µM	> 100 µM	> 100 µM	> 100 µM	> 100 µM	> 100 µM	> 100 µM	> 100 µM
CSC(=NC1CC(n2cc(C)c(=O)[nH]c2=O)OC1CO)NC#N (stereo not drawn)	> 100 µM	> 100 µM	> 100 µM	> 100 µM	> 100 µM	> 100 µM	> 100 µM		> 100 µM	> 100 µM	> 100 µM	> 100 µM	> 100 µM	> 100 µM	> 100 µM	> 100 µM	
COc1cc(C2C(Cl)C(=O)N2NC(=O)c2ccc(NC(C)=O)cc2)cc(Br)c1O (stereo not drawn)	> 100 µM	> 100 µM	> 100 µM	> 100 µM	> 100 µM	> 100 µM	> 100 µM	> 100 µM	> 100 µM	> 100 µM	> 100 µM	> 100 µM	> 100 µM	> 100 µM			
CCOC(=O)C1(Cc2ccccc2)Cc2cc3c(cc2C1=O)CCC3 (stereo not drawn)	> 100 µM	> 100 µM	> 100 µM	> 100 µM		> 100 µM	> 100 µM	> 100 µM	> 100 µM	> 100 µM	> 100 µM	> 100 µM	> 100 µM	> 100 µM	> 100 µM	> 100 µM	> 100 µM
Cc1[nH]c2ncn3ncnc3c2c1Cc1ccccc1	> 100 µM	> 100 µM	> 100 µM	> 100 µM	> 100 µM	> 100 µM	> 100 µM		> 100 µM	> 100 µM	> 100 µM	> 100 µM	> 100 µM	> 100 µM	> 100 µM	> 100 µM	> 100 µM
COC(=O)c1ccccc1/C=C1\Cc2cc3c(cc2C1=O)CCC3		> 100 µM	> 100 µM	> 100 µM	> 100 µM	> 100 µM	> 100 µM	> 100 µM	> 100 µM	> 100 µM	> 100 µM	> 100 µM	> 100 µM	> 100 µM	> 100 µM	> 100 µM	
Cc1nc2c(O)cccc2c(=O)[nH]1	> 1000 µM	> 1000 µM	> 1000 µM	> 1000 µM	> 1000 µM	> 1000 µM	> 1000 µM	> 1000 µM	> 1000 µM	> 1000 µM	> 1000 µM	> 1000 µM	> 1000 µM		> 1000 µM		> 1000 µM
Cc1ccc(S(=O)(=O)c2c(N)c3nccn3c3nc4ccccc4nc23)cc1	> 100 µM	> 100 µM	> 100 µM		> 100 µM	> 100 µM	> 100 µM	> 100 µM	> 100 µM		> 100 µM	> 100 µM	> 100 µM	> 100 µM			
O=C(Cn1c(C(=O)/C=C/c2ccco2)nc2ccccc21)c1ccc(Cl)cc1	27.4 µM	57.1 µM		> 100 µM		> 100 µM	> 100 µM	32.9 µM	58.6 µM		> 100 µM	> 100 µM	85.8 µM	97.1 µM	76.4 µM	> 100 µM	24.6 µM
COc1nc(/C=N/NC(N)=S)nc(OC)n1		> 100 µM	> 100 µM	> 100 µM	> 100 µM	> 100 µM	> 100 µM	> 100 µM	> 100 µM	> 100 µM	> 100 µM	> 100 µM	> 100 µM				
CC(=O)Nc1ccc(C2=N/C(=C\c3ccc(Cl)c(Cl)c3)C(=O)O2)cc1	> 100 µM	> 100 µM	> 100 µM	> 100 µM	> 100 µM	> 100 µM	> 100 µM	> 100 µM	> 100 µM	> 100 µM	> 100 µM	> 100 µM	> 100 µM	> 100 µM			
